Experimental findings from patent US20100216703A1, “Inhibitors of PDE4 and Methods of Use” (THE REGENTS OF THE UNIVERSITY OF CALIFORNIA, priority 2006, published 2010) are described below.

Entries after “also recorded” stand apart in the source; their conditions may differ.

The test system of one series is NIH3T3p75NTR cells. In words: Competitive binding cAMP ELISA. Particulars: for intracellular cAMP levels in NIH3T3p75NTR cells: 16 h, PTX 100 ng/ml, IBMX 500 μM, PDE1 inh. 18.7 μM, EHNA 80 μM, trequinsin 100 nM, rolipram 10 μM, PDE5 inh. 23 μM. The class given is cell-based. Here is the method:
[…] fibroblasts or 500,000 SCs were lysed in 0.1 N HCl solution and cAMP was measured using a competitive binding cAMP ELISA (Assay Designs). Cells were treated with 100 ng/ml PTX for 16 h. […] Cells were treated with forskolin in the presence of the inhibitors for 1 h. […] For the qualitative and quantitative PKA assay (Promega), cells were treated with 10 μM forskolin for 30 min, lysed in 1% NP-40 buffer with 150 mM NaCl, 50 mM Tris, and 1 mM EGTA, and protein concentration was determined using the Bradford Assay (Bio-Rad Laboratories). 1 μg was loaded into the PKA assay reaction mix according to the manufacturer's protocol (Promega).

Another series has as its system wt and p75NTR−/− SCs. In words: Quantification of tPA activity in primary Schwann cells. Format: cell-based, mouse. Particulars: 10 μM forskolin, 100 ng/ml NGF, 50 ng/ml BDNF, 16 h. Here is the method: Quantification of tPA and uPA activity in SC and fibroblast in lysates and supernatants was performed according to the directions of the activity assay kits from American Diagnostica and Chemicon, respectively. To elevate cAMP cells were treated either with 2 mM db-cAMP (Sigma-Aldrich) or with 10 μM forskolin (Sigma-Aldrich) for 16 h. To block PKA activity, cells were treated with 200 nM KT5720 (Calbiochem).
Murine SCs were isolated as described previously (Syroid et al., 2000). NIH3T3 or HEK293 cells were cotransfected either with p75NTR FL, ICD or deletion constructs, and PDE4A5 cDNAs using Lipofectamine 2000 (Invitrogen) as described in the Results section. CGNs were isolated from P10 animals (Yamashita and Tohyama, 2003). CGNs were lysed immediately for co-IP, without plating. siRNA directed against p75NTR (Dharmacon; SMART Pool reagent, Cat. M-080041-00; Cat. M-009340) was transfected into SCs and NIH3T3p75NTR cells using Dharmafect (Dharmacon).

Series [1] addresses p75 neurotrophin receptor (p75NTR), stably expressed in NIH3T3p75NTR cells.

In the case of `COc1ccc2ncnc(NCc3ccc4c(c3)OCO4)c2c1` [4-{[3′,4′-(Methylenedioxy)benzyl]amino}-6-methoxyquinazoline], the “intracellular cAMP levels in NIH3T3p75NTR cells” value with NIH3T3p75NTR cells was “only IBMX (P<0.0001) and rolipram (P<0.0001) increase”.
On the same count and under the same terms, the result for `COc1cc2c(cc1OC)-c1c/c(=N\c3c(C)cc(C)cc3C)n(C)c(=O)n1CC2` [trequinsin] reads “only IBMX (P<0.0001) and rolipram (P<0.0001) increase”; that for pertussis toxin [PTX], “does not rescue the p75NTR-mediated down-regulation of cAMP; also recorded: only IBMX (P<0.0001) and rolipram (P<0.0001) increase”.
Still for that read-out and setting: to `CCCCCC[C@@H]([C@@H](C)O)n1cnc2c(N)ncnc21` (racemic) [EHNA, erythro-9-(2-Hydroxy-3-nonyl)adenine] belongs “only IBMX (P<0.0001) and rolipram (P<0.0001) increase”; to `COCc1nc2c([nH]1)c(=O)n(C)c(=O)n2CC(C)C` [8-Methoxymethyl-IBMX, 8-methoxymethyl-3-isobutyl-1-methylxanthine], “only IBMX (P<0.0001) and rolipram (P<0.0001) increase”.
Consider NGF: nerve growth factor, for which, in the series with NIH3T3p75NTR cells (100 ng/ml NGF, 50 ng/ml BDNF, 750 ng/ml FcTrkB, 1.35 ug/ml Fcp75NTR, 1 h), the “intracellular cAMP levels in NIH3T3p75NTR cells, neurotrophins or their inhibition” value is given as “does not affect the p75NTR-mediated suppression of cAMP”. For the same molecule, the “tPA activity in SCs” value in the series on wt and p75NTR−/− SCs is given as “do not affect activity of tPA; also recorded: has no effect on tPA”.

B1: BDNF: Brainderived neurotrophic factor (protein, UniProt P23560 19-247, looked up)
Neurotrophic factor BDNF …: APMKEANIRGQGGLAYPGVRTHGTLESVNGPKAGSRGLTSLADTFEHVIEELLDEDQKVRPNEENNKDADLYTSRVMLSSQVPLEPPLLFLLEEYKNYLDAANMSMRVRRHSDPARRGELSVCDSISEWVTAADKKTAVDMSGGTVTVLEKVPVSKGQLKQYFYETKCNPMGYTKEGCRGIDKRHWNSQCRTTQSYVRALTMDSKKRIGWRFIRIDTSCVCTLTIKRGR
Take B1: in the series on wt and p75NTR−/− SCs, the “tPA activity in SCs” value was “do not affect activity of tPA; also recorded: has no effect on tPA”.

B2: endogenous PDE4A5 (PDE4A, 109 kD) of NIH3T3p75NTR cells (protein)
chain: MEPPAAPSERSLSLSLPGPREGQATLKPPPQHLWRQPRTPIRIQQRGYSDSAERSEPERSPHRPIERADAVDTGDRPGLRTTRMSWPSSFHGTGTGGGSSRRLEAENGPTPSPGRSPLDSQASPGLMLHAGAATSQRRESFLYRSDSDYDMSPKTMSRNSSVASEAHGEDLIVTPFAQVLASLRNVRSNFSLLTNVPIPSNKRSPLGGPPSVCKATLSEETCQQLARETLEELDWCLEQLETMQTYRSVSEMASHKFKRMLNRELTHLSEMSRSGNQVSEYISNTFLDKQHEVEIPSPTPRQRPFQQPPPAAVQQAQPMSQITGLKKLVHTGSLNINVPRFGVKTDQEDLLAQELENLSKWGLNIFCVSEYAGGRSLSCIMYTIFQERDLLKKFHIPVDTMMTYMLTLEDHYHADVAYHNSLHAADVLQSTHVLLATPALDAVFTDLEILAALFAAAIHDVDHPGVSNQFLINTNSELALMYNDESVLENHHLAVGFKLLQEENCDIFQNLSKRQRQSLRKMVIDMVLATDMSKHMTLLADLKTMVETKKVTSSGVLLLDNYSDRIQVLRNMVHCADLSNPTKPLELYRQWTDRIMAEFFQQGDRERERGMEISPMCDKHTASVEKSQVGFIDYIVHPLWETWADLVHPDAQDILDTLEDNRDWYHSAIRQSPSPTLEEEPGVLSDPALPDKFQFELTLEEEDEEDSLEVPGLPCTEETLLAPHDTRAQAMEQSKVKGQSPAVVEVAESLKQETASAHGAPEESAEAVGHSFSLETSILPDLRTLSPSEEAQGLLGLPSMAAEVEAPRDHLAAMRACSACSGTSGDNSAVISAPGRWGSGGDPA
On to B2, for which the “FRET emission ratio change of pm-AKAR2.2 in response to forskolin (membrane-associated PKA activity)” value in series [1] was “NIH3T3p75NTR cells show an attenuated response, revealing reduced PKA activity at the plasma membrane”.
